Data taken from ChEMBL document CHEMBL1146508, “Cyclonellin, a new cyclic octapeptide from the marine sponge Axinella carteri” (J Nat Prod, 2004).
Activity calls are given as the source filed them. The calls are words filed in the database; no cut-off is given here. Peptide text beside a SMILES is read from it.

Tests used:
COLO 205 = test: Cytotoxicity against human COLO205 cells at 50 ug/mL; format: functional, cell-based
OVCAR-3 = test: Cytotoxicity against human OVCAR-3 cells at 50 ug/mL; format: functional, cell-based

## C[C@@H]1NC(=O)[C@H]([C@@H](C)O)NC(=O)[C@H](Cc2ccc(O)cc2)NC(=O)[C@@H]2CCCN2C(=O)[C@H](Cc2ccc(O)cc2)NC(=O)[C@H](CCCNC(=N)N)NC(=O)[C@@H]2CCCN2C(=O)[C@H](CC(N)=O)NC1=O (cyclo(ANPRYPYT))
COLO 205
  Activity: inactive
OVCAR-3
  Activity: inactive
